Where only a bound is given, the exact number is not on record here.

By melting point is commonly meant the temperature of the solid-liquid transition. Take `COC=C(C(=O)OC)c1cccc([N+](=O)[O-])c1`: the melting point lay within 101 to 103 °C.
Next, `COc1c(Cl)c(F)cc2c(=O)c(C(=O)O)cn(C3CC3)c12`: 195 to 199 °C; `O=c1[nH]c2ccccc2c2nc(-c3ccccc3)cn12`: 278 to 280 °C; `CCc1cc2[nH]c(=O)c(=O)[nH]c2cc1Cl`: over 315 °C.
With `O=C(CC12CC3CC(CC(C3)C1)C2)Nc1c(Cl)ccc2nc(N3CCNCC3)ccc12`, the melting point is 280 to 283 °C.
In turn, `COc1cc2nc(N)nc(-c3ccc(C)c(Br)c3Br)c2cc1OC` gave a melting point of 233 to 236 °C.
As to `CCOC(=O)c1sc(SC)c(C(=O)CC)c1C`, the melting point lay within 114 to 115 °C.
Next, `O=[N+]([O-])C(Br)(Br)CCO`: 22 to 25 °C; `C#Cc1ccc(-c2c(C)nnc(OC)c2-c2c(F)cc(OC)cc2F)cc1`: 192 to 193 °C.
`Cc1oc(-c2ccccc2)nc1/C=C/c1ccc(/C=C/CO)cc1` showed a melting point of 165 to 166 °C.
The compound `CCOC(=O)c1ccc(-c2cccc(O)c2)c(C(C)(C)C)c1` yielded a melting point of 118 to 120 °C.
Compound `Nc1c([N+](=O)[O-])cc(Br)c2c1CN(CCc1ccccc1)CC2` had a melting point of 120 to 122 °C.
`COc1cc(OC)c2c(=O)[nH]c(-c3ccc(OC)c(-c4ccc(C(=O)N(C)C)cc4Cl)n3)nc2c1` showed a melting point of 271 to 272 °C.
Next, `CCc1c(F)c(F)c(F)c2c1c(=O)c(C(=O)O)cn2C1CC1`: 197 to 198 °C; `C=C(C)Cn1c(C)c(C)c2cnnc(OCc3ccc(F)cc3)c21`: 118 to 120 °C.
Take `CCc1cc2c(Cl)cc(F)c(-n3c(=O)cc(C(F)(F)F)n(C)c3=O)c2o1`: the melting point was in the range of 142 to 143 °C.
For the compound `CC(C)(C)c1cc(-c2nn(CC3CC3)c3ncccc23)cc(C(C)(C)C)c1O`, the melting point lay within 135 to 137 °C.
In turn, `O=C(Nc1ccc(-n2nc(C(F)(F)F)cc2C(F)(F)F)cc1)c1cccc(Cl)c1F` showed a melting point of 113 to 116 °C.
Compound `Cc1nc2cnc3cc(Cl)ccc3c2s1` showed a melting point of 181 to 183 °C.
Regarding `CN1C=CCC(C(=O)NCCc2c[nH]c3ccccc23)=C1`, the melting point lay within 40 to 70 °C.
The compound `CC(C)(C)c1ccc(C(O)CCCn2ccnc2)cc1` (stereo not drawn) returned a melting point of 205 to 207 °C.
In turn, `O=C(NCCCl)NCC1(Cc2ccccc2)CC(=O)C(OCc2ccccc2)=CN1` (stereo not drawn) returned a melting point of 130 °C.
As for `CCN(CC)C(=O)c1nn(-c2ccc(OC(F)(F)F)cc2)c2cccc(F)c2c1=O`, the melting point came out at 118 °C.
Consider `CC(C)(C)c1cc(CCc2ccccc2NC(=O)NCC(C)(C)c2ccc(N3CCCC3)cc2)cc(C(C)(C)C)c1O`, for which the melting point lay within 195 to 196 °C.
Take `O=C(Nc1cccc(-c2nnn[nH]2)c1)C(=O)N1CCC(Cc2ccccc2)CC1`: the melting point was 159 to 161 °C.
In turn, `CS(=O)(=O)Oc1ccc(O)cc1` gave a melting point of 82 to 84 °C.
Next, `CCOC1CN(Cc2ccc(OC)cc2)Cc2cc(OC)c(OCc3ccccc3)cc21` (stereo not drawn): 84 to 85 °C; `COc1cc([N+](=O)[O-])ccc1-c1cccc(C(=O)O)c1`: 88 to 88.5 °C.
`CN(CC(=O)Nc1cccc(-c2cc(-c3ccccc3O)nc(NC(=O)c3cccs3)c2C#N)c1)C(=O)OC(C)(C)C` registered a melting point of 143 to 149 °C.
For the compound `N#Cc1ccc(N2CC(C(=O)N3CCN(CC(=O)OCc4ccccc4)CC3)OC2=O)cc1` (stereo not drawn), the melting point lay in the range of 131 to 132 °C.
Next, `CC1=CC(=C=C2C(C#N)C(=C(C#N)C#N)OC2(C)C)C=C(C)N1c1ccccc1` (stereo not drawn): 290 °C; `CN1C(=O)C2(COc3cc4c(cc32)OCCO4)c2c(NC(=O)C(C)(C)C)cccc21` (stereo not drawn): 182 to 184 °C; `CCCCCCCCCCCCCCCCSCCCCCCCCCCC(=O)NN`: 108 °C.
In the case of `N#Cc1ccc(Oc2ccc(N)c(CN)c2)cc1`, the melting point lay in the range of 80 to 82 °C.
As for `O=C(Nc1ccccc1S(=O)(=O)F)NC1CCCCC1`, the melting point is 177 °C.
Turning to `CCOC(=O)C1CCNC(=O)C1=NCCc1ccccc1` (stereo not drawn), the melting point was 99 to 100 °C.
The compound `Cc1c(CO)nc2c(NC(=O)C(C)(C)C)cccn12` registered a melting point of 186 to 187 °C.
Compound `COc1ccc(CCCCCCCCO)cc1` showed a melting point of 47 to 49 °C.
Next, `Cc1ccc(-c2nnc(N3CCCC(O)C3)nc2-c2ccc(C)cc2)cc1` (stereo not drawn): 122 to 125 °C; `N#CCCc1cccc(O)c1`: 64 to 66 °C; `Cc1ccc(C(=O)c2ccc(Cc3ccc(NS(C)(=O)=O)cc3C#N)n2C)cc1`: 171 to 172 °C.
Next, `CCCCc1nc2c(N)nc3cc(/C=C/C(=O)OC)ccc3c2n1CC(C)C`: 193 to 194 °C; `CCCCn1nc(C(OC)OC)nc1Cc1ccc(-c2ccccc2-c2nnn[nH]2)nc1`: 113 to 115 °C.
In turn, `CC(C)(C)OC(=O)N[C@@H](CC(=O)OCc1ccccc1)C(=O)NCCc1ccc(C(=O)OCc2ccccc2)cc1` had a melting point of 99 to 100 °C.
`Cc1cc(NS(=O)(=O)c2cc(C3(O)CCC(=O)N3C)ccc2Cl)cc(C(C)(C)C)c1O` (stereo not drawn) registered a melting point of 120 °C.
`CC(C)[C@H](NC(=O)CC[C@H](C)CNC(=O)COc1ccccc1)[C@@H](O)c1c(-c2ccccc2)c1=O` showed a melting point of 74 to 84 °C.
For the compound `Cc1cc(-c2ccccc2)c(=O)n2c1-c1sccc1CC2`, the melting point lay in the range of 80.5 to 81 °C.
On to `COc1ccc(-c2cc3c(N4CCOCC4)nnc(N4CCOCC4)c3c(C)n2)cc1`, for which the melting point lay in the range of 206 to 209 °C.
For the compound `CC(=O)Oc1cc2c(c3ccccc13)Nc1ccc(C)cc1S2`, the melting point lay within 193 to 195 °C.
The compound `O=C(O)c1csnc1-c1cc(S)cc(Cl)c1` yielded a melting point of 150 to 160 °C.
`CC[C@H](COC)n1cc(Br)nc(N2CCc3cc(OC)cc(Br)c32)c1=O` yielded a melting point of 122 to 123 °C.
In turn, `O=C(Nc1cccc(C(F)(F)F)c1)c1cccnc1NCCc1ccncc1` displayed a melting point of 128 to 138 °C.
For `Cc1cccc(C(=NO)c2ccc(OCCOc3ccc(C(=NO)c4cccc(C)c4)cc3)cc2)c1`, the melting point is 151 to 153 °C.
Next, `CS(=O)CCC(=O)Nc1ccc(OCC(O)CO)cc1` (stereo not drawn): 139 to 141 °C; `O=[N+]([O-])c1sc(Nc2c(Cl)cccc2Cl)nc1Cl`: 141 °C.
Next, `CN1C(=O)[C@H](NC(=O)c2cc3cc(Cl)ccc3[nH]2)N=C(c2ccccc2)c2ccccc21`: 160 to 164 °C; `CC(=O)Nc1nc2c(Oc3cc(-c4ccc(C(F)(F)F)cc4NC(=O)CC4CCCCC4)ncn3)cccc2s1`: 288 to 289 °C.
Regarding `Cc1ccc2ccc(C#N)cc2c1`, the melting point is 134 to 136 °C.
Compound `CC1(C)Oc2ccc(C#N)cc2[C@@H](n2c(=O)[nH]c3ccccc32)[C@@H]1O` (relative stereo) came in with a melting point of 255 to 257 °C.
In turn, `Cc1cc(N2CCN(CCOc3ccccc3)C2=O)sc1C(=O)NCc1cccnc1` had a melting point of 78 to 80 °C.
`O=C(Cn1ccnc1)c1cccc(-c2ccccc2)c1` had a melting point of 128 to 129 °C.
`CC1=C(C(=O)OCCC#N)C(c2c(F)cccc2Cl)C(C(=O)OC2CCCC2)=C(C)N1` (stereo not drawn): the melting point was in the range of 135 to 136 °C.
To `O=C1NCCCCC1c1cccc(OCc2ccccc2)c1` (stereo not drawn) belongs 119 to 122 °C; to `CCc1nn2ccc3c(c2c1C(C)C#N)CCO3` (stereo not drawn), 86 to 88 °C.
In turn, `CN1Cc2c(C(N)=NO)ncn2-c2ccc(F)c(Cl)c2C1=O` came in with a melting point of 228 to 231 °C.
`CC(C)(C)c1cc(/C=C/C(=O)COc2ccccc2)cc(C(C)(C)C)c1O` gave a melting point of 100 to 102 °C.
With `CC(=O)NCC1CN(c2ccc(N3CCN(c4nc5ccccc5o4)CC3)c(F)c2)C(=O)O1` (stereo not drawn), the melting point lay in the range of 223 to 224 °C.
To `CN1C(=O)Nc2ccc(Cl)cc2C12NC(=O)NC2=O` (stereo not drawn) belongs over 280 °C; to `Cc1n[nH]c(C)c1Oc1cc(Cl)cc(C#N)c1`, 136 to 140 °C.
In turn, `CC1=C(C(=O)OC(C)(C)C)C(c2ccc(F)c(Br)c2)C(C(=O)OC(C)(C)C)=C(C)N1` gave a melting point of 171 to 172 °C.
To `CC(C)(C)[N+]([O-])=Cc1c[nH]c(-c2ccccc2)n1` belongs 209 to 210 °C; to `N#CC(C(=O)Nc1ccccc1)C(=O)c1nn(-c2ccccc2)c2c1CSc1ccc(N=CN3CCOCC3)cc1-2` (stereo not drawn), 205 to 210 °C; to `C[C@@H](Oc1cc(-c2cnn(C3CCNCC3)c2)cnc1N)c1c(Cl)ccc(F)c1Cl`, 194 °C.
Next, `O=[N+]([O-])c1cc2c(Nc3ccc(F)c(Cl)c3)ncnc2cc1OC1CCCC1`: 230 °C; `Cc1cccc(C)c1N(CC(C)Cl)C(=O)c1ccccc1` (stereo not drawn): 106 to 109 °C.
To `N#Cc1cccc(Oc2c(-c3ccccc3)cccc2-c2ccccc2)c1C#N` belongs 129 to 130 °C; to `N#Cc1[nH]c([N+](=O)[O-])c(Br)c1Br`, 181 to 186 °C; to `CCN(C(=O)OC)c1cccc(-c2ccc3nncn3n2)c1`, 131 to 135 °C.
Turning to `CC1(c2ccccc2)CC(=O)N(c2ccncc2)C1=O` (stereo not drawn), the melting point was 90 to 92 °C.
Next, `C=CCN1C2CCC1C1CCC2N1C(c1ccc(C(=O)N2CCCCC2)cc1)c1cccc(O)c1` (stereo not drawn): 133 to 135 °C.
Take `CNC(=O)N(N=C(C)C)C(=O)c1ccc(Cl)cc1`: the melting point was 119 to 123 °C.
To `Cc1cc(C)nc(N(C#N)c2ccccc2)n1` belongs 153 to 154 °C.
Consider `CC(=O)N1CCC(n2nc(-c3c(-c4ccccc4)nn4ccccc34)ccc2=O)CC1`, for which the melting point is 114 to 117 °C.
As for `CC(C)(O)C(=O)Nc1ccc2oc3ccccc3c2c1`, the melting point lay in the range of 134 to 137 °C.
In turn, `CC(C)c1ccc(OC(Cc2ccc(OCCNC(=O)c3ccc(-c4ccc(F)cc4)nc3)cc2)C(=O)O)cc1` (stereo not drawn) came in with a melting point of 199 to 200 °C.
On to `CC(=O)NCCn1c(=O)[nH]c2ccccc21`, for which the melting point was determined as 153 °C.
`CC(C)(C)OC(=O)NCCCCNC(=O)Cc1ccc2ccccc2c1`: the melting point was determined as 102 °C.
To `Cc1ccccc1C(=S)NC(=O)Nc1ccc(Cl)cc1` belongs 211 °C.

(Values after a melting point compilation (Tetko et al.; mined from patent text by program, amines drawn as free bases though some values may be those of a salt).)
